In US9427433B2, “Methods and compositions for enhancing fertility and/or inhibiting pregnancy failure and restoring glucose tolerance” (Queen's University at Kingston, priority 2011, dated 2016):

What was measured:
diabetic NOD mice = assay: Weekly non-fasting blood glucose monitoring; type: in vivo, mouse; settings: FIG. 16A
Procedure: Through the use of Ultra Glucosemeter (Accu-Chek Aviva/Roche Diagnostic, Laval, Quebec, Canada) blood glucose levels for all mice were monitored via tail venipuncture once a week on a regular basis beginning at the age of 8 weeks. Animals with non-fasting or those having blood glucose values ≧14.9 mmol/L after the glucose challenge (glucose tolerance) test were identified as diabetic. […] The selected mice were 9 weeks old and were treated with 0.1 mg/kg q2d of tacrolimus (Prograf (5 mg/ml), Astellas) subcutaneously administered in 0.2 ml saline for three weeks after which animals were mated to males of the same strain (See FIG. 1). Vehicle (0.2 ml saline, s.q.) treated hyperglycemic NOD female mice were allowed two weeks in diabetes before they were mated to males of the same strain. Facial (mandibular) venous blood samples were collected from treated animals at 24 and 48 hours between injections and at pregnancy days 0.5, 2.5, 4.5, 6.5, 8.5, 10.5, 12.5, 14.5, 16.5 and 18.5 respectively following a standard procedure for facial bleed in mice (Golde et al Lab Anim (NY) 2005 34:39-43).

[1] = test system: type 2 diabetes NZO mouse model; assay: HOMA-IR, HOMA-B and insulin sensitivity index (Si); type: in vivo
Procedure: Female mice were administered tacrolimus (0.1 mg/kg or 0.05 mg/kg, n=6/group), vehicle (n=10), pimecrolimus (0.1 mg/kg, n=6) or sirolimus (0.1 mg/kg, n=6) subcutaneously every other day for 3 weeks.
HOMA IR=fasting glucose (mmol/L)×fasting insulin ([…])/22.5 according to the method of Bonora E et al., 2000. Pancreatic β-Cell function (HOMA-B) was calculated according to the method of Tresaco B et al., 2005, HOMA-B=[20×[…]). Insulin sensitivity (Si) was determined according to the method of Matthews D et al., 1985. Si=[basal glucose]−[glucose 15 min]/15).

NOD mice = NOD mice at younger age, model for Type 1 diabetes; cited from earlier work
[2] = test system: 60% high fat fed NZO and DIO mice; assay: Glucose tolerance test after tacrolimus; type: in vivo, mouse; settings: all treated type 2 diabetic and obese mice; FIG. 16B
Procedure: Twenty NZO and DIO/B6 female mice were maintained on a high fat diet consisted of 60% kcal fat, 20% kcal protein and 20% kcal carbohydrate, with a total energy mass of 5.24 kcal/gm (D12492, Research Diets Inc.; […] Tacrolimus (Prograf (5 mg/ml), Astellas) was administered subcutaneously in a dose of 0.1 mg/kg q2d in 0.2 ml saline for three weeks to the obese and glucose intolerant NZO and DIO mice starting at the age of 10 weeks after which animals were mated to males of the same strain and pregnancy was dated from the morning of the positive detection of vaginal (copulation) plug. See FIG. 2. […] Briefly, basal glucose levels were measured for conscious mice individually caged in 1000 cc plastic mouse caging using a one-touch ultra glucose strips and meter (Acqui-check Aviva, Roche, Montreal, Canada) and approximately 30 microliters of blood obtained via tail venipuncture prior to fasting for six hours in cages equipped with hardwood bedding. Fasting blood glucose was recorded at the end of the six hours fasting period. […] Then after, blood glucose was recorded at 15, 30, 45, 60, 90 and 120 minutes respectively. For Si experiments blood glucose was determined only at 15 minutes. Glucose tolerance graphs were generated by blotting mean±standard error of the mean (SEM) of the recorded glucose data per mouse per minute collection time. […]

IFN-γ mRNA = assay: Decidual/placental IFN-γ mRNA levels; type: in vivo, mouse; settings: mid- to late pregnancy; NOD mice, 1 or 0.1 mg/kg q2d for three weeks with or without 10 mg/kg loading dose
Procedure: In these studies, pregnancy progression and the glycemic control of mice treated with tacrolimus were examined. In an initial set of experiments, a loading dose of 10 mg/kg was initially administered to mice at the pre-diabetic stage followed by a maintenance dose of 1 or 0.1 mg/kg every other day (q2d) for three weeks after the last injection of which animals were allowed to mate and get pregnant. In an additional set of experiments mice were injected every other day with either 1 or 0.1 mg/kg dose for three weeks during the pre-diabetic stage and after the last injection of which mice were mated and examined for the progress of their pregnancy. Ultrasonic, vascular resistance index measurements, morphologic analyses were conducted on immunosuppressed and control NOD dams and their gestational uterine samples throughout pregnancy. Uterine, decidual and placental IFN-γ mRNA levels were also measured. Immunosuppressed NOD mice achieved and maintained normal glucose homeostasis with normal pregnancy pattern and a higher rate of viably implanted embryos and fetuses having normal phenotypic appearance. Placentae of NOD mice treated with tacrolimus were more deciduomatous, and the integrity of the stem, anchoring and branching placental villi were maintained. […]

C=CC[C@@H]1/C=C(\C)C[C@H](C)C[C@H](OC)[C@H]2O[C@@](O)(C(=O)C(=O)N3CCCC[C@H]3C(=O)O[C@H](/C(C)=C/[C@@H]3CC[C@@H](O)[C@H](OC)C3)[C@H](C)[C@@H](O)CC1=O)[C@H](C)C[C@@H]2OC [tacrolimus]
weekly non-fasting blood glucose (glycemic phenotype) (diabetic NOD mice): effective in restoring normal glycemic phenotype | insulin resistance (HOMA-IR) ([1]; p<0.001 vs vehicle): significantly reduced insulin resistance | insulin sensitivity (Si) ([1]; p<0.01 vs vehicle): enhanced insulin sensitivity | pancreatic β-cell function (HOMA-B) ([1]; p<0.05 vs vehicle): enhanced pancreatic β-cell function | suppression of overt diabetes, share of treated NOD mice (NOD mice): 84% | glucose tolerance [2]: restored normal glucose tolerance | decidual/placental IFN-γ mRNA (IFN-γ mRNA): Lower normal levels of decidual/placental IFN-γ mRNA
